Source: patent publication US20100174007A1, “Haloneopentyl Bis(ALKYL) Phosphate Ester, Flame Retardant Composition Containing Same and Polyurethane Foam Prepared Therewith” (priority 2007, published 2010)

Experiments:
[1] = system: Salmonella typhimurium TA1537; assay: Ames test, strain TA1537; type: cell-based; conditions: with and without metabolic activation; frameshift strain; also: key: +: Plus sign indicates observed mutagenic effects; −: minus sign indicates non-mutagenic property
Method: (§1) In each Ames test, a single chemical substance was evaluated in the four standard Salmonella typhimurium tester strains, TA1535, TA1537, TA98, and TA100. Strains TA1535 and TA100 identify mutagens that act via base-pair substitution whereas TA1537 and TA98 identify mutagens capable of causing frameshifts in the DNA. The bacterial strain E. coli WP2uvrA was also included as another sensitive tester strain. Each test was conducted with and without metabolic activation.

E. coli WP2uvrA = type: cell-based
Method: as §1

[2] = system: Salmonella typhimurium TA1535; assay: Ames test, strain TA1535; type: cell-based; conditions: with and without metabolic activation; base-pair substitution strain; also: key: +: Plus sign indicates observed mutagenic effects; −: minus sign indicates non-mutagenic property
Method: as §1

[3] = system: Salmonella typhimurium TA98; assay: Ames test, strain TA98; type: cell-based; conditions: with and without metabolic activation; frameshift strain; also: key: +: Plus sign indicates observed mutagenic effects; −: minus sign indicates non-mutagenic property
Method: as §1

[4] = system: Salmonella typhimurium TA100; assay: Ames test, strain TA100; type: cell-based; conditions: with and without metabolic activation; base-pair substitution strain; also: key: +: Plus sign indicates observed mutagenic effects; −: minus sign indicates non-mutagenic property
Method: as §1

rats = assay: Acute oral toxicity, limit dose; type: in vivo
Method: No rats died after the administration of an oral limit dose of 5000 mg/kg of products from Example 1(B). Clinical signs were minimal and all rats fully recovered by day 3. The acute oral LD50 was greater than 5000 mg/kg.

Compound	Ames test result TA1537 [1]	Ames test result WP2uvrA (E. coli WP2uvrA)	Ames test result TA1535 [2]	Ames test result TA98 [3]	Ames test result TA100 [4]	acute oral LD50 (rats; oral)	mortality after oral limit dose (rats; oral limit dose of 5000 mg/kg)	clinical signs after oral limit dose (rats; oral limit dose of 5000 mg/kg, all rats fully recovered by day 3)
CC(C)(C)c1ccccc1OP(=O)(OC(CCl)CCl)OC(CCl)CCl [O-tert-Butylphenyl bis(1,3-dichloro-2-propyl)phosphate]	−	−	+	−	+			
O=P(OCC(CBr)(CBr)CBr)(OC(CCl)CCl)OC(CCl)CCl [Phosphoric acid, 3-bromo-2,2-bis(bromomethyl)propyl bis[2-chloro-1-(chloromethyl)ethyl]ester]	−	−	−	−	+			
tribromoneopentyl bis(isobutyl)phosphate [Products of 1(B)]	−	−	−	−	−	greater than 5000 mg/kg	No rats died	minimal
